Reference: patent publication US9549884B2, “Retinoid derivatives and process for their preparation” (SELEGO AB, priority 2013, dated 2017)
In brackets after ≈: the same amount, converted by molar mass.

Tests used:
[1] = Storage stability study checked by HPLC; assay type: physicochemical; settings: 0-4° C., 40-90% humidity
Method: A comparison in stability between Compound (Ia) and the substance retin-15-yl ester retinoic acid (CAS No. 15498-86-9) was outlined by performing HPCL analysis of the two compounds throughout an extended storage period.
The stability study was performed at 0-4° C. and 40-90% humidity. The samples of each product, packed in polyethylene bag inside a closed polyethylene box, were maintained under the above mentioned condition for the given time (see below). The stability of the product was checked by HPLC analysis using the method reported here below: A Young Lin YL9100 HPLC System was equipped with a variable volume automatic injector and a YL-Clarity data system. A Capcellpack UG 120 C-18, 150×4.6 mm, 5 μm, column from Agilent Technologies was used with a column temperature of 25±2° C., a flow rate of 1.5 ml/min, an injection volume of 10 μl, a wavelength of 326 nm. The mobile phase was A: water containing 0.1% acetic acid; B: acetonitrile containing 0.1% acetic acid; C: methanol containing 0.1% acetic acid; and D: isopropanol. For a run time of 40 min the gradient was: […]
The Working Solution: dissolve the sample under stability study in acetonitrile in a concentration of 1 mg/ml and inject as it.
With reference to FIG. 1 and FIG. 2, the HPLC peaks with the highest area percentage (retention time 26.1 for Compound (1a) and 12.2 for retin-15-yl ester retinoic acid).

[2] = In vitro skin corrosion membrane barrier test (CORROSITEX Assay)
Method: The skin corrosive potential of compound (1a) was analyzed. Corrosive chemicals are dependent on their grade of corrosivity able to break through the bio-barrier membrane employed in the “in vitro Membrane barrier test (CORROSITEX® Assay)” (see EVCAM (2000) ESAC statement on the application of the Corrositex® assay for skin corrosivity testing. The test system is composed of a synthetic bio-barrier that is placed on a chemical detection system (CDS). The time necessary to activate the CDS allows to distinguish between Corrosive© and non-corrosive (NC) test substances. Hereby the test item was placed atop the bio-barrier membranes. The CDS activation was assessed as a color change or a change in consistency. […] Compound (1a) accordingly was classified as non-corrosive.

[3] = Highest soluble concentration in DMSO; assay type: physicochemical; settings: organic solvent or mixture
[4] = tested on: reconstituted three-dimensional human epidermis model (EPISKIN-SM); assay: In vitro skin irritation test, EPISKIN-Standard Model, MTT; assay type: cell-based
Method: The skin irritant potential of compound (1a) was analyzed with a reconstituted three-dimensional human epidermis model, the EPISKIN-Standard Model® (EPISKIN-SM®) as a replacement for the Draize Skin Irritation Test (OECD TG 404) to distinguish between UN GHS “Category 2” skin irritating test substances and not categorized test substances (“No Category”) which may be considered as non-irritant. Hereby, the test item was applied topically. Cytotoxicity is expressed as reduction of mitochondrial dehydrogenase activity measured by formazan production from MTT after a 15 min exposure and 42 h post incubation period and compared to those of the concurrent negative controls.
The relative mean tissue viability after 15 min of exposure and 42 h post incubation was >50%. The test item, compound (1a) is therefore classified as “non-irritant” in accordance with UN GHS “No Category”.

[5] = tested on: BALB/c 3T3 cells; assay: In vitro phototoxicity test, neutral red uptake with and without UVA; assay type: cell-based
Method: In the present study the phototoxicity effects of compound (1a) were analyzed by dissolving the test item in DMSO and diluting to 1.100 ratio with Earle's balanced test solution. BALB/C 3T3 cells were treated for 1 h with different concentrations of the test solution at 37±1±° C. and further 50 min in absence and in presence of a non-toxic dose of UVA light, respectively. One day after treatment cytotoxicity was analyzed as a measure of reduction of neutral red uptake and compared to the controls. […] However, since the calculated mean photo effect (MPE) is <0.1 (0.027 in a rangefinder experiment; 0.056 in the main experiment) the test item is classified as non-toxic.

Row | decrease of purity with respect to the starting time (HPLC) ([1]; in one month) [%] | solubility [3] [µg/mL] | stability (HPLC) ([1]; after about two months) | Compound | skin corrosivity classification [2] | mean time required to activate the CDS ([2]; Corrositex bio-barrier membrane) [min] | relative mean tissue viability ([4]; 15 min exposure, 42 h post incubation) [%] | skin irritation classification (UN GHS) ([4]; UN GHS No Category) | phototoxicity classification ([5]; MPE <0.1) | cytotoxic effect with UVA radiation ([5]; in case of UVA radiation) | mean photo effect (MPE) ([5]; main experiment) | mean photo effect (MPE) ([5]; rangefinder experiment)
1 | 5 | – | – | CC1=C(/C=C/C(C)=C/C=C/C(C)=C/COC(=O)/C=C(C)/C=C/C=C(C)/C=C/C2=C(C)CCCC2(C)C)C(C)(C)CCC1 [retin-15-yl ester retinoic acid, reference compound] | – | – | – | – | – | – | – | –
2 | – | 2000 (≈ 4.46 mM) | practically stable | CC1=C(/C=C/C(C)=C/C=C/C(C)=C/C(=O)OCCNC(=O)c2cccnc2)C(C)(C)CCC1 [Compound (1a), 2-(nicotinamido)-ethyl retinoate] | non-corrosive | > 60 | > 50 | non-irritant | non-toxic | slight cytotoxic effect | 0.056 | 0.027
